Values of other authors, collected in patent US20170095494A1, “Process for the Extraction of Strawberry P-Coumaroyl Hexose and/or Polyphenols, Extract and Uses Thereof” (Nutra Canada Inc., priority 2014, published 2017).

Tested on: AMPK
Settings: Bhattacharya et al, 2013, Yoon et al

SMILES: O=C(O)/C=C/c1ccc(O)cc1 [p-coumaric acid]
- impact on AMPK and glucose uptake in muscle cells: increased glucose uptake
